Each compound was assayed against Acetylcholinesterase (Homo sapiens, UniProt P22303) (assay: Inhibition of human erythrocyte AChE using S-acetylthiocholine iodide as substrate preincubated for 20 mins followed by substrate addition measured every 30 secs for 1 hr by Ellman's method). Settings: not given.
Acetylcholinesterase, sequence (P22303 whole entry): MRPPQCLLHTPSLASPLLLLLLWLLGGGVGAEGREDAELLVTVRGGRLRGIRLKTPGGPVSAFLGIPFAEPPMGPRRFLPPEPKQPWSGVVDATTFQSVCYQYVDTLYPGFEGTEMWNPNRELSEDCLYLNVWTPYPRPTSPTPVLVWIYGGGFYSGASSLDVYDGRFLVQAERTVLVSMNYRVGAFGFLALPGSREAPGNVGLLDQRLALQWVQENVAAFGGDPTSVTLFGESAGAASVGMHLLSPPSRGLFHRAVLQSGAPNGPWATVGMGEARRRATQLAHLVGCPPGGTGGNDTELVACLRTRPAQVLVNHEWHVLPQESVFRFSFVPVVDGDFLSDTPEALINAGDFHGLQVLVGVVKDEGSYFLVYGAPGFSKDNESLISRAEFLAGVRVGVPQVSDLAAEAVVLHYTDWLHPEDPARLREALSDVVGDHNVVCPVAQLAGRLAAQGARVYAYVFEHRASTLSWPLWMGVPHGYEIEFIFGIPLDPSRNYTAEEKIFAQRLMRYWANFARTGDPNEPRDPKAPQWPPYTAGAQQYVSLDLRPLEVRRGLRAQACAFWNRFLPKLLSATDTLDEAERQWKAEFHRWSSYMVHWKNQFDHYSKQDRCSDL

Going from `COC(C)(C)/C=C/C[C@]1(C)[C@@H](CC=C(C)C)C[C@]2(CC=C(C)C)C(=O)C3=C(O[C@@H](C(C)(C)O)C3)[C@@]1(C(=O)C(C)C)C2=O` to `COC(C)(C)/C=C/C[C@]1(C)[C@@H](CC=C(C)C)C[C@]2(CC=C(C)C)C(=O)C3=C(O[C@H](C(C)(C)O)C3)[C@@]1(C(=O)C(C)C)C2=O`, the IC50 falls from 7.17 µM to 3.98 µM (1.8-fold). The second is the more potent here.

First: CC(C)=CCC1=C2O[C@H](C(C)(C)O)C[C@@]23C[C@H](CC=C(C)C)[C@@](C)(CCC(=O)C(C)C)[C@@](C(=O)C(C)C)(C1=O)C3=O
Second: C=C(C)[C@@H](O)CC[C@]1(C)[C@@H](CC=C(C)C)C[C@]23C[C@@H](C(C)(C)O)OC2=C(CC=C(C)C)C(=O)[C@@]1(C(=O)C(C)C)C3=O
The IC50 of the first is 2.7-fold higher: 24.3 µM for the first, 9.13 µM for the second. The second is the more potent here.

Going from `CC(C)=CCC[C@]1(C)[C@@H](CC=C(C)C)C[C@@]2(CC=C(C)C)C(=O)[C@]1(C(=O)C(C)C)C(=O)C1=C2O[C@@H](C(C)(C)O)[C@@H]1O` to `CC(C)=CCC[C@]1(C)[C@@H](CC=C(C)C)C[C@@]2(CC=C(C)C)C(=O)[C@]1(C(=O)C(C)C)C(=O)C1=C2O[C@H](C(C)(C)O)[C@H]1O`, the IC50 rises from 11.3 µM to 18.6 µM (1.6-fold). The first is the more potent here.

Going from `CC(C)=CC[C@H]1C[C@@]2(CC=C(C)C)C(=O)[C@](C(=O)C(C)C)(C(=O)C3=C2O[C@H](C(C)(C)O)C3)[C@]1(C)CCC(=O)C(C)C` to `C=C(C)[C@H](O)CC[C@]1(C)[C@@H](CC=C(C)C)C[C@@]2(CC=C(C)C)C(=O)[C@]1(C(=O)C(C)C)C(=O)C1=C2O[C@@H](C(C)(C)O)C1`, the IC50 rises from 10.9 µM to 25.1 µM (2.3-fold).

`CC(C)=CCC[C@]1(C)[C@@H](CC=C(C)C)C[C@]2(CC=C(C)C)C(=O)C3=C(O[C@@H](C(C)(C)O)[C@@H]3O)[C@@]1(C(=O)C(C)C)C2=O` and `CC(C)=CCC[C@]1(C)[C@@H](CC=C(C)C)C[C@]2(CC=C(C)C)C(=O)C3=C(O[C@H](C(C)(C)O)[C@H]3O)[C@@]1(C(=O)C(C)C)C2=O` are within 1.5-fold of each other in IC50: 12.6 µM for the first, 8.83 µM for the second.

`C=C(C)[C@H](O)CC[C@]1(C)[C@@H](CC=C(C)C)C[C@@]2(CC=C(C)C)C(=O)[C@]1(C(=O)C(C)C)C(=O)C1=C2O[C@H](C(C)(C)O)C1` and `C=C(C)[C@H](O)CC[C@]1(C)[C@@H](CC=C(C)C)C[C@]2(CC=C(C)C)C(=O)C3=C(O[C@H](C(C)(C)O)C3)[C@@]1(C(=O)C(C)C)C2=O` are within 1.5-fold of each other in IC50: 26.4 µM for the first, 19.6 µM for the second.

`CC(=O)[C@@]12C(=O)C(CC=C(C)C)=C3O[C@H](C(C)(C)O)C[C@]3(C[C@H](CC=C(C)C)[C@@]1(C)CCC=C(C)C)C2=O` and `C=C(C)[C@@H](O)CC[C@]1(C)[C@@H](CC=C(C)C)C[C@]2(CC=C(C)C)C(=O)C3=C(O[C@H](C(C)(C)O)C3)[C@@]1(C(=O)C(C)C)C2=O` are within 1.5-fold of each other in IC50: 8.75 µM for the first, 10.7 µM for the second.

What follows are compounds tested on SMMC-7721 (assay: Cytotoxicity against human SMMC7721 cells assessed as reduction in cell viability after 48 hrs by MTS assay). Settings: SMMC-7721, 48 h.
Format: functional, cell-based

`C=C(C)[C@H](O)CC[C@]1(C)[C@@H](CC=C(C)C)C[C@@]2(CC=C(C)C)C(=O)[C@]1(C(=O)C(C)C)C(=O)C1=C2O[C@H](C(C)(C)O)C1` and `CC(=O)[C@@]12C(=O)C(CC=C(C)C)=C3O[C@H](C(C)(C)O)C[C@]3(C[C@H](CC=C(C)C)[C@@]1(C)CCC=C(C)C)C2=O` are within 1.5-fold of each other in IC50: 9.1 µM for the first, 10 µM for the second.
